Data from paper PMC8617944, “Preclinical Pharmacokinetics and Acute Toxicity in Rats of 5-{[(2E)-3-Bromo-3-carboxyprop-2-enoyl]amino}-2-hydroxybenzoic Acid: A Novel 5-Aminosalicylic Acid Derivative with Potent Anti-Inflammatory Activity” (Molecules, 2021).
Values joined by “and” are separate entries in the source; they are usually repeats but may differ in a detail not shown here. Identical values can stand only once. “Also recorded” adds a separate entry of the source. Like-named read-outs stand apart in the source and are kept apart here.

Experiments:
[1] = test system: 12-O-tetradecanoylphorbol acetate (TPA)-induced mouse ear edema; design: method as in ref 32, 33 = [32]; doi:10.1016/j.arabjc.2016.12.026; 32. Cabrera Pérez L.C. Gutiérrez Sánchez M. Mendieta Wejebe J.E. Hernández Rodríguez M. Fragoso Vázquez M.J. Salazar J.R. Correa Basurto J. Padilla Martínez I.I. Rosales Hernández M.C. Novel 5-aminosa || [33]; 33. Correa Basurto J. Rosales Hernández M.C. Mendieta Wejebe J.E. Trujillo Ferrara J.G. Padilla Martínez I.I. Ramírez Durán L.A. Alemán González Duhart D. Síntesis de un derivado del ácido 5-aminosali; conditions: cited from earlier work
[2] = design: method as in ref 32, 33 = [32]; doi:10.1016/j.arabjc.2016.12.026; 32. Cabrera Pérez L.C. Gutiérrez Sánchez M. Mendieta Wejebe J.E. Hernández Rodríguez M. Fragoso Vázquez M.J. Salazar J.R. Correa Basurto J. Padilla Martínez I.I. Rosales Hernández M.C. Novel 5-aminosa || [33]; 33. Correa Basurto J. Rosales Hernández M.C. Mendieta Wejebe J.E. Trujillo Ferrara J.G. Padilla Martínez I.I. Ramírez Durán L.A. Alemán González Duhart D. Síntesis de un derivado del ácido 5-aminosali; conditions: 0.408 mM; cited from earlier work
[3] = Distribution of C1 in tissues; type: in vivo, Wistar rats; conditions: p.o. 75 mg/kg, 75 mg/kg; for concentration at 10 min / concentration at 30 min / concentration at 90 min / concentration at 3 h / concentration at 6 h: male, Wistar, rat, po
Description: Fifteen male Wistar rats were distributed in five groups (n = 3) and rats were orally administered C1 at a single dose of 75 mg/kg. Subsequently, a group of animals was sacrificed (n = 3) at 10, 30, 90, 180, and 360 min. […] All tissues and organs were weighed on an analytical balance and immediately processed. Each tissue sample was homogenized with saline solution in a 1:3 (wt/v) ratio. The preparation process for analysis was the same as described above for plasma samples [57] (File S8).

[4] = Small intestine, individual rats

O=C(/C=C(/Br)C(=O)O)Nc1ccc(O)c(C(=O)O)c1 [Compound C1, 5-{[(2E)-3-bromo-3-carboxyprop-2-enoyl]amino}-2-hydroxybenzoic acid]
anti-inflammatory activity [1]: anti-inflammatory agent in mice; also recorded: comparable to that of indomethacin; also recorded: exhibited anti-inflammatory activity
reduction of the free radical DPPH [2]: about 90%
Concentration (µg/mL) at 30 minutes, Rat 1-3 ([3]; Brain, individual rats): 4.1 µg/mL and 3.2 µg/mL
Concentration (µg/mL) at 90 minutes, Rat 1-3 ([3]; Brain, individual rats): 3.3 µg/mL and 3.8 µg/mL
Concentration (µg/mL) at 3 h, Rat 1-3 ([3]; Brain, individual rats): 1.9 µg/mL and 3.2 µg/mL
Concentration (µg/mL) at 6 h, Rat 1-3 ([3]; Brain, individual rats): 3.0 µg/mL
Concentration (µg/mL) at 10 minutes, Rat 1-3 ([3]; Colon, individual rats): 7.5 µg/mL and 9.4 µg/mL
Concentration (µg/mL) at 30 minutes, Rat 1-3 ([3]; Colon, individual rats): 10.6 µg/mL and 8.5 µg/mL and 3.9 µg/mL
Concentration (µg/mL) at 90 minutes, Rat 1-3 ([3]; Colon, individual rats): 7.9 µg/mL and 6.8 µg/mL
Concentration (µg/mL) at 3 h, Rat 1-3 ([3]; Colon, individual rats): 3.6 µg/mL and 6.1 µg/mL and 7.5 µg/mL
Concentration (µg/mL) at 10 minutes, Rat 1-3 ([3]; Hearth, individual rats): 8.0 µg/mL and 1.3 µg/mL and 12.4 µg/mL
Concentration (µg/mL) at 30 minutes, Rat 1-3 ([3]; Hearth, individual rats): 4.4 µg/mL and 2.6 µg/mL
Concentration (µg/mL) at 90 minutes, Rat 1-3 ([3]; Hearth, individual rats): 3.9 µg/mL and 3.0 µg/mL
Concentration (µg/mL) at 3 h, Rat 1-3 ([3]; Hearth, individual rats): 2.2 µg/mL and 4.0 µg/mL
Concentration (µg/mL) at 10 minutes, Rat 1-3 ([3]; Kidney, individual rats): 14.1 µg/mL and 11.2 µg/mL and 22.6 µg/mL
Concentration (µg/mL) at 30 minutes, Rat 1-3 ([3]; Kidney, individual rats): 9.1 µg/mL and 5.4 µg/mL
Concentration (µg/mL) at 90 minutes, Rat 1-3 ([3]; Kidney, individual rats): 6.1 µg/mL and 4.7 µg/mL
Concentration (µg/mL) at 3 h, Rat 1-3 ([3]; Kidney, individual rats): 4.2 µg/mL and 3.3 µg/mL and 6.8 µg/mL
Concentration (µg/mL) at 10 minutes, Rat 1-3 ([3]; Liver, individual rats): 5.1 µg/mL and 4.4 µg/mL
Concentration (µg/mL) at 30 minutes, Rat 1-3 ([3]; Liver, individual rats): 7.2 µg/mL and 6.4 µg/mL
Concentration (µg/mL) at 90 minutes, Rat 1-3 ([3]; Liver, individual rats): 2.6 µg/mL and 5.6 µg/mL and 5.1 µg/mL
Concentration (µg/mL) at 3 h, Rat 1-3 ([3]; Liver, individual rats): 5.0 µg/mL and 2.6 µg/mL and 7.0 µg/mL
Concentration (µg/mL) at 10 minutes, Rat 1-3 ([3]; Lung, individual rats): 23.3 µg/mL and 6.2 µg/mL and 17.7 µg/mL
Concentration (µg/mL) at 30 minutes, Rat 1-3 ([3]; Lung, individual rats): 14.6 µg/mL and 6.7 µg/mL and 10.9 µg/mL
Concentration (µg/mL) at 90 minutes, Rat 1-3 ([3]; Lung, individual rats): 4.0 µg/mL and 13.3 µg/mL and 4.8 µg/mL
Concentration (µg/mL) at 3 h, Rat 1-3 ([3]; Lung, individual rats): 3.9 µg/mL and 7.9 µg/mL and 10.0 µg/mL
Concentration (µg/mL) at 30 minutes, Rat 1-3 ([3]; Muscle, individual rats): 4.0 µg/mL
Concentration (µg/mL) at 90 minutes, Rat 1-3 ([3]; Muscle, individual rats): 3.3 µg/mL and 3.6 µg/mL
Concentration (µg/mL) at 3 h, Rat 1-3 ([3]; Muscle, individual rats): 2.4 µg/mL and 2.6 µg/mL
Concentration (µg/mL) at 30 minutes, Rat 1-3 [3, 4]: 18.3 µg/mL and 23.9 µg/mL and 4.9 µg/mL
Concentration (µg/mL) at 90 minutes, Rat 1-3 [3, 4]: 14.1 µg/mL and 18.2 µg/mL
Concentration (µg/mL) at 3 h, Rat 1-3 [3, 4]: 15.4 µg/mL and 14.9 µg/mL
Concentration (µg/mL) at 10 minutes, Rat 1-3 ([3]; Spleen, individual rats): 22.6 µg/mL and 42.7 µg/mL
Concentration (µg/mL) at 30 minutes, Rat 1-3 ([3]; Spleen, individual rats): 15.6 µg/mL and 15.0 µg/mL
Concentration (µg/mL) at 90 minutes, Rat 1-3 ([3]; Spleen, individual rats): 5.5 µg/mL and 17.1 µg/mL and 12.4 µg/mL
Concentration (µg/mL) at 3 h, Rat 1-3 ([3]; Spleen, individual rats): 10.4 µg/mL and 4.7 µg/mL and 11.1 µg/mL
Concentration (µg/mL) at 10 minutes, Rat 1-3 ([3]; Stomach, individual rats): 24.1 µg/mL and 10.3 µg/mL and 20.5 µg/mL
Concentration (µg/mL) at 30 minutes, Rat 1-3 ([3]; Stomach, individual rats): 13.0 µg/mL and 11.8 µg/mL and 5.8 µg/mL
Concentration (µg/mL) at 90 minutes, Rat 1-3 ([3]; Stomach, individual rats): 10.4 µg/mL and 8.4 µg/mL and 4.8 µg/mL
Concentration (µg/mL) at 3 h, Rat 1-3 ([3]; Stomach, individual rats): 3.7 µg/mL and 8.5 µg/mL and 7.1 µg/mL
Concentration (µg/mL) at 30 minutes, Rat 1-3 ([3]; Testis, individual rats): 4.8 µg/mL and 2.4 µg/mL
Concentration (µg/mL) at 90 minutes, Rat 1-3 ([3]; Testis, individual rats): 2.7 µg/mL and 5.8 µg/mL and 3.5 µg/mL
Concentration (µg/mL) at 3 h, Rat 1-3 ([3]; Testis, individual rats): 2.8 µg/mL and 3.2 µg/mL
concentration at 10 min ([3]; brain, Brain, 10 min, n = 3, read-out: Average Concentration): 3.7 µg/mL
concentration at 30 min ([3]; brain, Brain, 30 min, n = 3, read-out: Average Concentration): 3.5 µg/mL
concentration at 90 min ([3]; brain, Brain, 90 min, n = 3, read-out: Average Concentration): 3.4 µg/mL
concentration at 3 h ([3]; brain, Brain, 3 h, n = 3, read-out: Average Concentration): 2.8 µg/mL
concentration at 6 h ([3]; brain, Brain, 6 h, n = 3, read-out: Average Concentration): 2.5 µg/mL
concentration at 10 min ([3]; brain, Brain, individual rats, read-out: Concentration (µg/mL) at 10 minutes, Rat 1-3): 4.1 µg/mL
concentration at 30 min ([3]; brain, Brain, individual rats, read-out: Concentration (µg/mL) at 30 minutes, Rat 1-3): 3.2 µg/mL
concentration at 90 min ([3]; brain, Brain, individual rats, read-out: Concentration (µg/mL) at 90 minutes, Rat 1-3): 3.1 µg/mL
concentration at 3 h ([3]; brain, Brain, individual rats, read-out: Concentration (µg/mL) at 3 h, Rat 1-3): 3.2 µg/mL
concentration at 6 h ([3]; brain, Brain, individual rats, read-out: Concentration (µg/mL) at 6 h, Rat 1-3): 2.2 µg/mL
concentration at 10 min ([3]; colon, Colon, 10 min, n = 3, read-out: Average Concentration): 10.3 µg/mL
concentration at 30 min ([3]; colon, Colon, 30 min, n = 3, read-out: Average Concentration): 7.6 µg/mL
concentration at 90 min ([3]; colon, Colon, 90 min, n = 3, read-out: Average Concentration): 6.3 µg/mL
concentration at 3 h ([3]; colon, Colon, 3 h, n = 3, read-out: Average Concentration): 5.7 µg/mL
concentration at 6 h ([3]; colon, Colon, 6 h, n = 3, read-out: Average Concentration): 6 µg/mL
concentration at 10 min ([3]; colon, Colon, individual rats, read-out: Concentration (µg/mL) at 10 minutes, Rat 1-3): 14.2 µg/mL
concentration at 90 min ([3]; colon, Colon, individual rats, read-out: Concentration (µg/mL) at 90 minutes, Rat 1-3): 4.2 µg/mL
concentration at 10 min ([3]; heart, Hearth, 10 min, n = 3, read-out: Average Concentration): 7.2 µg/mL
concentration at 30 min ([3]; heart, Hearth, 30 min, n = 3, read-out: Average Concentration): 3.6 µg/mL
concentration at 90 min ([3]; heart, Hearth, 90 min, n = 3, read-out: Average Concentration): 3.2 µg/mL
